In US10800741B2 (ANCUREALL PHARMACEUTICAL (SHANGHAI) CO., LTD., priority 2017, dated 2020):

What was measured:
Format in all cases: cell-based, Human
KCL-22 (BCR-ABL) = assay: In vitro growth inhibition of KCL-22 tumor cells (MTT/CCK8); conditions: Homo sapiens, KCL-22; in vitro growth inhibition (or induction of apoptosis), cells cultured 3 to 5 days, MTT (CCK8); read-out: IC50 KCL-22 (BCR-ABL)
H1703 (PDGFRa amp) = assay: In vitro growth inhibition of H1703 tumor cells (MTT/CCK8); conditions: Homo sapiens, NCI-H1703; in vitro growth inhibition (or induction of apoptosis), cells cultured 3 to 5 days, MTT (CCK8); read-out: IC50 H1703 (PDGFRa amp)
Karpas 299 (NPM-ALK) = assay: In vitro growth inhibition of Karpas 299 tumor cells (MTT/CCK8); conditions: Homo sapiens, KARPAS-299; in vitro growth inhibition (or induction of apoptosis), cells cultured 3 to 5 days, MTT (CCK8); read-out: IC50 Karpas 299 (NPM-ALK)
MOLM-13 (FLT3-ITD) = assay: In vitro growth inhibition of MOLM-13 tumor cells (MTT/CCK8); conditions: Homo sapiens, MOLM-13; in vitro growth inhibition (or induction of apoptosis), cells cultured 3 to 5 days, MTT (CCK8); read-out: IC50 MOLM-13 (FLT3-ITD)
KATO III (FGFR2 amp) = assay: In vitro growth inhibition of KATO III tumor cells (MTT/CCK8); conditions: Homo sapiens, KATO III; in vitro growth inhibition (or induction of apoptosis), cells cultured 3 to 5 days, MTT (CCK8); read-out: IC50 KATO III (FGFR2 amp)
H1581 (FGFR1 amp) = assay: In vitro growth inhibition of H1581 tumor cells (MTT/CCK8); conditions: Homo sapiens, NCI-H1581; in vitro growth inhibition (or induction of apoptosis), cells cultured 3 to 5 days, MTT (CCK8); read-out: IC50 H1581 (FGFR1 amp)
Hep3B2 (FGFR3/4+++) = assay: In vitro growth inhibition of Hep3B2 tumor cells (MTT/CCK8); conditions: Homo sapiens, Hep3B; in vitro growth inhibition (or induction of apoptosis), cells cultured 3 to 5 days, MTT (CCK8); read-out: IC50 Hep3B2 (FGFR3/4+++)
Kasumi-1 (KIT N822K) = assay: In vitro growth inhibition of Kasumi-1 tumor cells (MTT/CCK8); conditions: Homo sapiens, Kasumi 1; in vitro growth inhibition (or induction of apoptosis), cells cultured 3 to 5 days, MTT (CCK8); read-out: IC50 Kasumi-1 (KIT N822K)

SMILES | IC50 (KCL-22 (BCR-ABL)) | IC50 (H1703 (PDGFRa amp)) | IC50 (Karpas 299 (NPM-ALK)) | IC50 (MOLM-13 (FLT3-ITD)) | IC50 (KATO III (FGFR2 amp)) | IC50 (H1581 (FGFR1 amp)) | IC50 (Hep3B2 (FGFR3/4+++)) | IC50 (Kasumi-1 (KIT N822K))
CC(C)(C)c1cc(NC(=O)Nc2ccc(Oc3ccnc4cc(O)c(C(N)=O)cc34)c(Cl)c2Cl)[nH]n1 [Compound 92, 4-{4-[3-(5-tert-butyl-2H-pyrazol-3-yl)-ureido]-2,3-dichloro-phenoxy}-7-hydroxy-quinolin-6-carboxamide] | 67.5 nM | 453 nM | 749 nM | 28.9 nM | 17.5 nM | 146 nM | 232 nM | 182 nM
CN(C)CCOc1cc2nccc(Oc3ccc(NC(=O)Nc4cc(C(C)(C)C)n[nH]4)c(Cl)c3Cl)c2cc1C(N)=O [Compound 93, 4-{4-[3-(5-tert-butyl-2H-pyrazol-3-yl)-ureido]-2,3-dichloro-phenoxy}-7-(2-dimethylamino-ethoxy)carboxamide] | 6.12 nM | 79.3 nM | 178 nM | 10.3 nM | 3.53 nM | 210 nM | 9.84 nM | 8.29 nM
CC(C)(C)c1cc(NC(=O)Nc2ccc(Oc3ccnc4cc(OCCN5CCOCC5)c(C(N)=O)cc34)c(Cl)c2Cl)[nH]n1 [Compound 94, 4-{4-[3-(5-tert-butyl-2H-pyrazol-3-yl)-ureido]-2,3-dichloro-phenoxy}-7-(2-morpholin-4-yl-ethoxy)-quinolin-6-carboxamide] | 3.66 nM | 5.03 nM | 65 nM | 1.61 nM | 0.89 nM | 4.17 nM | 10.6 nM | 4.22 nM
CC(C)(C)c1cc(NC(=O)Nc2ccc(Oc3ccnc4cc(OCCN5CCCCC5)c(C(N)=O)cc34)c(Cl)c2Cl)[nH]n1 [Compound 96, 4-{4-[3-(5-tert-butyl-2H-pyrazol-3-yl)-ureido]-2,3-dichloro-phenoxy}-7-(2-piperidin-1-yl-ethoxy)-quinolin-6-carboxamide] | 10.2 nM | 45 nM | > 1000 nM | 7.23 nM | 1.72 nM | 38 nM | 36.6 nM | 31.4 nM
COc1cc2nccc(Nc3ccc(NC(=O)Nc4cc(C(C)(C)C)n[nH]4)cc3Cl)c2cc1C(N)=O [Compound 97, 4-{4-[3-(5-tert-butyl-2H-pyrazol-3-yl)-ureido]-2-chloro-phenylamino}-7-methoxy-quinolin-6-carboxamide] | 122 nM | 342 nM | 803 nM | 0.8 nM | 117 nM | 254 nM | 456 nM | > 1000 nM
COc1cc2nccc(Nc3ccc(NC(=O)Nc4cc(C(C)(C)C)n[nH]4)cc3C)c2cc1C(N)=O [Compound 98, 4-{4-[3-(5-tert-butyl-2H-pyrazol-3-yl)-ureido]-2-methyl-phenylamino}-7-methoxy-quinolin-6-carboxamide] | > 1000 nM | 605 nM | > 1000 nM | 6 nM | 270 nM | 433 nM | 843 nM | > 1000 nM

The remaining lines, values ahead:

IC50 (KCL-22 (BCR-ABL)) | IC50 (H1703 (PDGFRa amp)) | IC50 (Karpas 299 (NPM-ALK)) | IC50 (MOLM-13 (FLT3-ITD)) | IC50 (KATO III (FGFR2 amp)) | IC50 (H1581 (FGFR1 amp)) | IC50 (Hep3B2 (FGFR3/4+++)) | IC50 (Kasumi-1 (KIT N822K)) | SMILES
264 nM | 128 nM | > 1000 nM | 3.41 nM | 37.8 nM | 294 nM | 862 nM | 355 nM | COc1cc2nccc(Nc3ccc(NC(=O)Nc4cc(C(C)(C)C)on4)cc3C)c2cc1C(N)=O [Compound 99, 4-{4-[3-(5-tert-butyl-isoxazol-3-yl)-ureido]-2-methyl-phenylamino}-7-methoxy-quinolin-6-carboxamide]
694 nM | 202 nM | 838 nM | 1.01 nM | 49.7 nM | 271 nM | > 1000 nM | > 1000 nM | COc1cc2nccc(Nc3ccc(NC(=O)Nc4cc(C(C)(C)C)on4)cc3Cl)c2cc1C(N)=O [Compound 100, 4-{4-[3-(5-tert-butyl-isoxazol-3-yl)-ureido]-2-chloro-phenylamino}-7-methoxy-quinolin-6-carboxamide]
11 nM | 61.3 nM | 64.3 nM | 0.08 nM | 2.34 nM | 9.56 nM | 110 nM | 24.1 nM | COc1cc2nccc(Oc3ccc(NC(=O)Nc4cc(C(C)(C)C)n[nH]4)cc3Cl)c2cc1NC(C)=O [Compound 101, N-(4-{4-[3-(5-tert-butyl-2H-pyrazol-3-yl)-ureido]-2-chloro-phenoxy}-7-methoxy-quinolin-6-yl)-acetamide]
12.1 nM | 86.7 nM | 350 nM | 0.15 nM | 4.17 nM | 24.2 nM | 191 nM | 14.6 nM | COc1cc2nccc(Oc3ccc(NC(=O)Nc4cc(C(C)(C)C)n[nH]4)cc3C)c2cc1NC(C)=O [Compound 103, N-(4-{4-[3-(5-tert-butyl-2H-pyrazol-3-yl)-ureido]-2-methyl-phenoxy}-7-methoxy-quinolin-6-yl)-acetamide]
> 1000 nM | 163 nM | 768 nM | 1.17 nM | 40.1 nM | 160 nM | 526 nM | > 1000 nM | COc1cc2nccc(Oc3ccc(NC(=O)Nc4cc(C(C)(C)C)n[nH]4)cn3)c2cc1NC(C)=O [Compound 104, N-(4-{5-[3-(5-tert-butyl-2H-pyrazol-3-yl)-ureido]-pyridin-2-yloxy}-7-methoxy-quinolin-6-yl)-acetamide]
45.3 nM | 71.9 nM | 187 nM | 0.59 nM | 4.07 nM | 39.6 nM | 83.4 nM | 57.3 nM | C=CC(=O)Nc1cc2c(Oc3ccc(NC(=O)Nc4cc(C(C)(C)C)n[nH]4)cc3Cl)ccnc2cc1OC [Compound 105, N-(4-{4-[3-(5-tert-butyl-2H-pyrazol-3-yl)-ureido]-2-chloro-phenoxy}-7-methoxy-quinolin-6-yl)-acrylamide]
115 nM | 120 nM | 380 nM | 9.37 nM | 46.7 nM | 168 nM | > 1000 nM | 176 nM | CCc1cc(NC(=O)Nc2cc(C(C)(C)C)n[nH]2)ccc1Oc1ccnc2cc(OC)c(C(N)=O)cc12 [Compound 106, 4-{4-[3-(5-tert-butyl-2H-pyrazol-3-yl)-ureido]-2-ethyl-phenoxy}-7-methoxy-quinolin-6-carboxamide]
589 nM | 263 nM | 759 nM | 50.4 nM | 345 nM | 341 nM | > 1000 nM | > 1000 nM | COc1cc2nccc(Oc3ccc(NC(=O)Nc4cc(C(C)(C)C)n[nH]4)cc3C(C)C)c2cc1C(N)=O [Compound 107, 4-{4-[3-(5-tert-butyl-2H-pyrazol-3-yl)-ureido]-2-isopropyl-phenoxy}-7-methoxy-quinolin-6-carboxamide]
2.48 nM | 108 nM | 559 nM | 18.7 nM | 1.55 nM | 17.7 nM | 98.7 nM | 0.471 nM | COc1cc2nccc(Oc3ccc(NC(=O)Nc4cc(C(C)(C)C)n[nH]4)c(C)c3C)c2cc1C(N)=O [Compound 109, 4-{4-[3-(5-tert-butyl-2H-pyrazol-3-yl)-ureido]-2,3-dimethyl-phenoxy}-7-methoxy-quinolin-6-carboxamide]
